Reference: US9062124B2, “GIP-based mixed agonists for treatment of metabolic disorders and obesity” (priority 2008, dated 2015)
Where a SMILES comes first, the peptide text is derived from it. Bridges are numbered along the chain shown (N, C = ends).

Experiments:
Format in all cases: cell-based
GIP receptor = target: T1, GIP receptor (Homo sapiens, UniProt P48546); experiment: cAMP synthesis functional assay (firefly luciferase reporter in HEK293 cells), GIP receptor
T1 construct: expressed in transfected cells; host or cells: HEK293
T1 sequence (P48546 22-466): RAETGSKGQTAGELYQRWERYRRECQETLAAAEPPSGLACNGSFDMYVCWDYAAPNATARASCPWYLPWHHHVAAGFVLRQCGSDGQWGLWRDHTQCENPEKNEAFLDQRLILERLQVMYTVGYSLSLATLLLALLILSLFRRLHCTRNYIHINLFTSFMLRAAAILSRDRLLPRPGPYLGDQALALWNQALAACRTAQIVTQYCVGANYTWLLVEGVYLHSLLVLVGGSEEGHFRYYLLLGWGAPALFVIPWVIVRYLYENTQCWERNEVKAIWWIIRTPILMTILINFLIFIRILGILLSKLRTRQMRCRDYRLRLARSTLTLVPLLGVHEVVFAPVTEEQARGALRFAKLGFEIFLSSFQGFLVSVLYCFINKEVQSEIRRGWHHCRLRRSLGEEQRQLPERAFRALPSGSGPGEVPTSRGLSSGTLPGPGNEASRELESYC

GLP-1 receptor = target: T2, GLP-1 receptor (Homo sapiens, UniProt P43220); experiment: cAMP synthesis functional assay (firefly luciferase reporter in HEK293 cells), GLP-1 receptor
T2 construct: expressed in transfected cells; host or cells: HEK293

[1] = system: glucagon receptor, GLP-1 receptor or GIP receptor; experiment: Agonist profile across receptors assigned from the cAMP reporter assay data; conditions: assigned from the in vitro EC50 data of Tables 1-4
glucagon receptor = target: T3, glucagon receptor (Homo sapiens, UniProt P47871); experiment: cAMP synthesis functional assay (firefly luciferase reporter in HEK293 cells), glucagon receptor
T3 construct: expressed in transfected cells; host or cells: HEK293

[2] = Table 1, relative to the native hormone of the indicated receptor
[3] = relative to the standard (Std.) EC50 of the same run

T3 sequence (P47871 26-477): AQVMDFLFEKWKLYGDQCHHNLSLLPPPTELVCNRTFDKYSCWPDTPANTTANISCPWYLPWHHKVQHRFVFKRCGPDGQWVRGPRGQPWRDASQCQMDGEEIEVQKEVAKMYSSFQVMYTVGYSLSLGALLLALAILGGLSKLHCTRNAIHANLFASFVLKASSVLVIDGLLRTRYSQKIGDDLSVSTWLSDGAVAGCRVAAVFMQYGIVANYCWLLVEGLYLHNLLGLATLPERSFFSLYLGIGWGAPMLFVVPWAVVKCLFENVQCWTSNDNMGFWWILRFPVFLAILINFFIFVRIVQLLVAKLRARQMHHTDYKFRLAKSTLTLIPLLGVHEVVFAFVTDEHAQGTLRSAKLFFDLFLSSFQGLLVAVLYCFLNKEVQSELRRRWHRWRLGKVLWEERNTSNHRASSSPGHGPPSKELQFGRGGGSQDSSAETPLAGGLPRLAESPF
T2 sequence (P43220 24-463, species assumed): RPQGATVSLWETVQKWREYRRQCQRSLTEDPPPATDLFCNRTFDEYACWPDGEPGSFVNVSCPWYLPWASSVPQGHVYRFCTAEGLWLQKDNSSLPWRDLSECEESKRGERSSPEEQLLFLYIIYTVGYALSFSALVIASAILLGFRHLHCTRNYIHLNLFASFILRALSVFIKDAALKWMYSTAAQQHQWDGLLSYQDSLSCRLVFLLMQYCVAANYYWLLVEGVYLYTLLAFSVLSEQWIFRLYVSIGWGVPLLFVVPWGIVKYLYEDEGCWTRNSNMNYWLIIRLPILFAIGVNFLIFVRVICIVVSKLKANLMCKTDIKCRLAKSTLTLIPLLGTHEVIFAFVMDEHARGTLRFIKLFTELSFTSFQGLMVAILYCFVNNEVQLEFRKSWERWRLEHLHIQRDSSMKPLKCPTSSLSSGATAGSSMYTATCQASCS

SMILES | GIP Receptor relative activity (GIP receptor; [2]) [%] | GLP-1 Receptor relative activity (GLP-1 receptor; [2]) [%] | receptor activity profile (glucagon / GLP-1 / GIP agonism) [1] | Glucagon Receptor relative activity (glucagon receptor; [2]) [%] | EC50 (GIP receptor; GIP Receptor EC50, cAMP luciferase reporter assay as in Example 16) [nM] | GIP Receptor relative activity (GIP receptor; [3]) [%] | EC50 (GLP-1 receptor; GLP-1 Receptor EC50, cAMP luciferase reporter assay as in Example 16) [nM] | GLP-1 Receptor relative activity (GLP-1 receptor; [3]) [%] | EC50 (glucagon receptor; Glucagon Receptor EC50, cAMP luciferase reporter assay as in Example 16) [nM] | Glucagon Receptor relative activity (glucagon receptor; [3]) [%]
CC[C@H](C)[C@H](NC(=O)[C@H](Cc1ccccc1)NC(=O)[C@H](CCC(=O)O)NC(=O)[C@@H]1CCCCNC(=O)CC[C@H](NC(=O)[C@H](CC(=O)O)NC(=O)[C@H](CC(C)C)NC(=O)[C@H](Cc2ccc(O)cc2)NC(=O)[C@H](CCCCN)NC(=O)[C@H](CO)NC(=O)[C@H](Cc2ccc(O)cc2)NC(=O)[C@H](CC(=O)O)NC(=O)[C@H](CO)NC(=O)[C@@H](NC(=O)[C@H](Cc2ccccc2)NC(=O)[C@@H](NC(=O)CNC(=O)[C@H](CCC(N)=O)NC(=O)[C@H](CO)NC(=O)[C@@H](N)Cc2ccc(O)cc2)[C@@H](C)O)[C@@H](C)O)C(=O)N[C@@H](CCC(N)=O)C(=O)N[C@@H](C)C(=O)N[C@@H](C)C(=O)N1)C(=O)N[C@@H](C)C(=O)N[C@@H](Cc1c[nH]c2ccccc12)C(=O)N[C@@H](CC(C)C)C(=O)N[C@@H](CC(C)C)C(=O)N[C@@H](C)C(=O)NCC(=O)NCC(=O)N1CCC[C@H]1C(=O)N[C@@H](CO)C(=O)N[C@@H](CO)C(=O)NCC(=O)N[C@@H](C)C(=O)N1CCC[C@H]1C(=O)N1CCC[C@H]1C(=O)N1CCC[C@H]1C(=O)N[C@@H](CO)C(N)=O [mt-151] (H-YSQGTFTSDYSKYLDEQAAKEFIAWLLAGGPSSGAPPPS-NH2; lactam 16-20; N-terminus assumed) | 7.28 | 30.16 | exemplary GLP-1/GIP/glucagon triagonist peptides | 30.16 | – | – | – | – | – | –
CCCCCCCCCCCCCC(=O)NCCCC[C@H](NC(=O)[C@@H](NC(=O)[C@H](Cc1ccccc1)NC(=O)[C@H](CCC(=O)O)NC(=O)C(C)(C)NC(=O)[C@H](C)NC(=O)[C@H](C)NC(=O)[C@H](CCC(N)=O)NC(=O)[C@H](CCCCN)NC(=O)[C@H](CC(=O)O)NC(=O)[C@H](CC(C)C)NC(=O)[C@H](Cc1ccc(O)cc1)NC(=O)[C@@H](NC(=O)[C@H](CO)NC(=O)[C@H](Cc1ccc(O)cc1)NC(=O)[C@H](CC(=O)O)NC(=O)[C@H](CO)NC(=O)[C@@H](NC(=O)[C@H](Cc1ccccc1)NC(=O)[C@@H](NC(=O)CNC(=O)[C@H](CCC(=O)O)NC(=O)C(C)(C)NC(=O)[C@@H](N)Cc1ccc(O)cc1)[C@@H](C)O)[C@@H](C)O)[C@@H](C)CC)C(C)C)C(=O)N[C@@H](Cc1c[nH]c2ccccc12)C(=O)N[C@@H](CC(C)C)C(=O)N[C@@H](CC(C)C)C(=O)N[C@@H](C)C(=O)NCC(=O)NCC(=O)N1CCC[C@H]1C(=O)N[C@@H](CO)C(=O)N[C@@H](CO)C(=O)NCC(=O)N[C@@H](C)C(=O)N1CCC[C@H]1C(=O)N1CCC[C@H]1C(=O)N1CCC[C@H]1C(=O)N[C@@H](CO)C(N)=O [mt-265] | – | – | exhibited activity at the GIP, GLP-1, and glucagon receptors | – | 0.0624 | 13.62 | 0.993 | 1.77 | 6.43 | 0.68
